This note sets out measurements from PMC9270327 (Communications Biology, 2022).

Structures can show the parent of a compound that is named as a salt. Where two headings read alike, the source gives them in different places.

This experiment relates to SARS-CoV-2 Wuhan-Hu-1 D614G, Caco-2 cells. The class given is cell-based. The conditions noted are these: for IC50: Caco-2 cells; for SARS-CoV-2 infection, Mean (0 nM = 100): Fig. 6b, D614G isolate.
Setting [1] is: in-cell ELISA 2 days post infection.

Turning to `CN(C)C(=O)COC(=O)Cc1ccc(OC(=O)c2ccc(NC(=N)N)cc2)cc1` [CM, camostat mesylate, reference compound], the IC50 by setting is: (2 days post infection) 26.7 µM; under setting [1], 26.7 µM. For the same compound, the “SARS-CoV-2 infection, Mean (0 nM = 100)” value stood at 93.4834 (compound 32 nM); 88.1889 (compound 160 nM); 88.3001 (compound 800 nM); 93.3101 (compound 4000 nM); 68.3858 (compound 20000 nM); 1.574 (compound 100000 nM).
For the compound ace-Arg-Pro-Arg-kbt [Compound 2], the IC50 (2 days post infection) was 17.1 µM and half-maximal inhibition under setting [1] (IC50) required 17.1 µM. Besides, the “SARS-CoV-2 infection, Mean (0 nM = 100)” value (compound 32 nM) was 95.739; the “SARS-CoV-2 infection, Mean (0 nM = 100)” value (compound 160 nM) worked out at 98.0747; the “SARS-CoV-2 infection, Mean (0 nM = 100)” value (compound 800 nM) is on record as 97.5395; the “SARS-CoV-2 infection, Mean (0 nM = 100)” value (compound 4000 nM) is recorded as 101.461; the “SARS-CoV-2 infection, Mean (0 nM = 100)” value (compound 20000 nM) was determined as 23.4531; the “SARS-CoV-2 infection, Mean (0 nM = 100)” value (compound 100000 nM) was found to be 0.121.
